Assay [1] relates to CYPRO (Cyperus rotundus, purple nutsedge). Briefly: In-water applied weed control, transplanted paddy rice, greenhouse (Example II). The assay is classed as in vivo, Cyperus rotundus L. On the procedure: Weed seeds or nutlets of the desired test plant species were planted in puddled soil (mud) prepared by mixing a shredded, non-sterilized mineral soil (50.5 percent silt, 25.5 percent clay, and 24 percent sand, with a pH of about 7.6 and an organic matter content of about 2.9 percent) and water at a 1:1 volumetric ratio. The prepared mud was dispensed in 365 mL aliquots into 16-ounce (oz.) non-perforated plastic pots with a surface area of 86.59 square centimeters (cm^2) leaving a headspace of 3 centimeters (cm) in each pot. Rice seeds were planted in Sun Gro MetroMix® 306 planting mixture, which typically has a pH of 6.0 to 6.8 and an organic matter content of about 30 percent, in plastic plug trays. Seedlings at the second or third leaf stage of growth were transplanted into 860 mL of mud contained in 32-oz. non-perforated plastic pots with a surface area of 86.59 cm^2 4 days prior to herbicide application. The paddy was created by filling the headspace of the pots with 2.5 to 3 cm of water. When required to ensure good germination and healthy plants, a fungicide treatment and/or other chemical or physical treatment was applied. The plants were grown for 4-22 days in a greenhouse with an approximate 14 h photoperiod which was maintained at about 29′C during the day and 26° C. during the night. Nutrients were added as Osmocote® (19:6:12, N:P:K+minor nutrients) at 2 g per 16-oz. pot and 4 g per 32-oz. pot. Water was added on a regular basis to maintain the paddy flood, and supplemental lighting was provided with overhead metal halide 1000-Watt lamps as necessary. The plants were employed for testing when they reached the first through fourth true leaf stage.
Treatments consisted of the acid or esters of 4-amino-3-chloro-5-fluoro-6-(4-chloro-2-fluoro-3-methoxy-phenyl)pyridine-2-carboxylic acid (compound A) each formulated as an SC and various herbicidal components alone and in combination. Forms of compound A were applied on an acid equivalent basis.
Other herbicidal components were applied on an active ingredient basis and included acetolactate synthase (ALS)-inhibiting herbicides (sulfonylurea chemical class), azimsulfuron formulated as Gulliver®, bensulfuron-methyl formulated as Londax® 60DF, cyclosulfamuron (technical grade materail), ethoxysulfuron formulated as Sunrice® 15 WDG, flucetosulfuron formulated as Sukedachi® 1KG G, imazosulfuron formulated as Brazzos®, metsulfuron-methyl formulated as Lorate®, nicosulfuron formulated as Accent®, orthosulfamuron formulated as Strada® WG, propyrisulfuron formulated as Zeta One®, and rimsulfuron formulated as Matrix® WG.
Treatment requirements for each compound or herbicidal component were calculated based upon the rates being tested, the concentration of active ingredient or acid equivalent in the formulation, an application volume of 2 mL per component per pot, and an application area of 86.59 cm^2 per pot.
For formulated compounds, a measured amount was placed in an individual 100 or 200 mL glass vial and was dissolved in a volume of 1.25% (v/v) Agri-Dex® crop oil concentrate to obtain application solutions.
For technical grade compounds, a weighed amount was placed in an individual 100 to 200 mL glass vial and was dissolved in a volume of acetone to obtain concentrated stock solutions. […] The concentrated stock solutions obtained were diluted with an equivalent volume of an aqueous mixture containing 2.5% (v/v) crop oil concentrate so that the final application solutions contained 1.25% (v/v) crop oil concentrate.
Applications were made by injecting with a pipetter appropriate amounts of the application solutions, individually and sequentially, into the aqueous layer of the paddy. Control plants were treated in the same manner with the solvent blank. Applications were made so that all treated plant material received the same concentrations of acetone and crop oil concentrate. […]

Assay [2] deals with CIRAR (Cirsium arvense, Canada thistle). Briefly: Post-emergence foliar-applied weed control in cereal crops, greenhouse (Example III). The assay is classed as in vivo, Cirsium arvense (L.) Scop. Put shortly:
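Greenhouse plants at the second or third true leaf stage (14 hour photoperiod, about 18/17 °C) were track-sprayed at 187 L/ha with Compound A SC, a second cereal herbicide, or their combinations, using 1.25% v/v crop oil concentrate. Injury was scored visually at 20-22 days against solvent-blank controls on a 0–100% scale. Expected mixture effects were calculated with Colby's equation.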

The subject of assay [3] is MATCH (Chamomilla chamomilla, scented mayweed). Described as above. The assay is classed as in vivo, Chamomilla chamomilla (L.) Rydb. On the procedure: Seeds of the desired test plant species were planted in Sun Gro MetroMix® 306 planting mixture, which typically has a pH of 6.0 to 6.8 and an organic matter content of about 30 percent, in plastic pots with a surface area of 103.2 square centimeters (cm^2). When required to ensure good germination and healthy plants, a fungicide treatment and/or other chemical or physical treatment was applied. The plants were grown for 7-36 days in a greenhouse with an approximate 14 hour photoperiod which was maintained at about 18° C. during the day and 17° C. during the night. Nutrients and water were added on a regular basis and supplemental lighting was provided with overhead metal halide 1000-Watt lamps as necessary. The plants were employed for testing when they reached the second or third true leaf stage.
Treatments consisted of the benzyl ester of 4-amino-3-chloro-5-fluoro-6-(4-chloro-2-fluoro-3-methoxy-phenyl)pyridine-2-carboxylic acid (Compound A), formulated as an SC (suspension concentrate), and a second cereal herbicide alone and in combination.
Measured aliquot of benzyl ester of 4-amino-3-chloro-5-fluoro-6-(4-chloro-2-fluoro-3-methoxy-phenyl)pyridine-2-carboxylic acid (Compound A) was placed in 25 milliliter (mL) glass vials and diluted in a volume of 1.25% (v/v) Agri-dex crop oil concentrated to obtain stock solutions. Compound requirements are based upon a 12 mL application volume at a rate of 187 liters per hectare (L/ha). Spray solutions of the second cereal herbicide and experimental compound mixtures were prepared by adding the stock solutions to the appropriate amount of dilution solution to form 12 mL spray solution with active ingredients in two- and three-way combinations. Formulated compounds were applied to the plant material with an overhead Mandel track sprayer equipped with an 8002E nozzle calibrated to deliver 187 L/ha over an application area of 0.503 square meters (m^2) at a spray height of 18 inches (46 cm) above average plant canopy. Control plants were sprayed in the same manner with the solvent blank.
The treated plants and control plants were placed in a greenhouse as described above and watered by sub-irrigation to prevent wash-off of the test compounds. After 20-22 days, the condition of the test plants as compared with that of the control plants was determined visually and scored on a scale of 0 to 100 percent where 0 corresponds to no injury and 100 corresponds to complete kill.
Colby's equation was used to determine the herbicidal effects expected from the mixtures (Colby, S. R. 1967. Calculation of the synergistic and antagonistic response of herbicide combinations. Weeds 15:20-22.).
The following equation was used to calculate the expected activity of mixtures containing two active ingredients, A and B: Expected=A+B−(A×B/100)

For the molecule `COc1c(Cl)ccc(-c2nc(C(=O)O)c(Cl)c(N)c2F)c1F` [Compound A Acid, 4-amino-3-chloro-5-fluoro-6-(4-chloro-2-fluoro-3-methoxy-phenyl)pyridine-2-carboxylic acid], the “Visual Weed Control (%) - 20 DAA CYPRO Obs” value in assay [1] (Table 43, 10.6 gae/ha alone) is listed as 10%; in assay [1] (Table 43, 21.2 gae/ha alone), 20%; in assay [1] (Table 49, 10.6 gae/ha alone), 10%; in assay [1] (Table 49, 21.2 gae/ha alone), 20%; in assay [1] (Table 49, 42.4 gae/ha alone), 95%.
On to `COc1c(Cl)ccc(-c2nc(C(=O)OCc3ccccc3)c(Cl)c(N)c2F)c1F` [Compound A Benzyl Ester], for which, in assay [2] (Cirsium arvense, post-emergence, read-out: Weed Control CIRAR Obs), the pest or weed control at 8.75 g/ha was determined as 40%. For the same molecule, the “Weed Control CIRAR Obs” value came out at 40% in assay [2] (Table 53, foliar-applied, after 20-22 days, 8.75 gai/ha alone); 40% in assay [2] (Table 54, foliar-applied, after 20-22 days, 8.75 gai/ha alone); 40% in assay [2] (Table 55, foliar-applied, after 20-22 days, 8.75 gai/ha alone); 40% in assay [2] (Table 56, foliar-applied, after 20-22 days, 8.75 gai/ha alone); 40% in assay [2] (Table 57, foliar-applied, after 20-22 days, 8.75 gai/ha Compound A Benzyl Ester alone); 40% in assay [2] (Table 58 (cereal), foliar-applied, after 20-22 days, 8.75 gai/ha alone). The “Weed Control CIRAR Obs” value in assay [2] (Table 59 (cereal), foliar-applied, after 20-22 days, 8.75 gai/ha alone) came out at 40%. In addition, the “Visual Weed Control (%) - 20 DAA CYPRO Obs” value in assay [1] (Table 50, 4.38 gae/ha alone) amounted to 50%; in assay [1] (Table 50, 8.75 gae/ha alone), 0%; in assay [1] (Table 50, 17.5 gae/ha alone), 90%. Moreover, the “Weed Control MATCH Obs” value in assay [3] (Table 54, after 20-22 days, 8.75 gai/ha alone) came out at 20%; in assay [3] (Table 55, after 20-22 days, 8.75 gai/ha alone) it was 20%; in assay [3] (Table 56, after 20-22 days, 8.75 gai/ha alone), 20%; in assay [3] (Table 57, after 20-22 days, 8.75 gai/ha Compound A Benzyl Ester alone), 20%; in assay [3] (Table 59 (cereal), after 20-22 days, 8.75 gai/ha alone), 20%.
For the molecule `COC(=O)c1ccccc1S(=O)(=O)NC(=O)Nc1nc(C)nc(OC)n1` [Metsulfuron-methyl, methyl 2-[[[[(4-methoxy-6-methyl-1,3,5-triazin-2-yl)amino]carbonyl]amino]sulfonyl]benzoate, reference compound], in assay [2] (Cirsium arvense, post-emergence, Table 56, foliar-applied, after 20-22 days, 1.1 gai/ha alone, read-out: Weed Control CIRAR Obs), the pest or weed control at 1.1 g/ha is 65%. Also, the “Weed Control MATCH Obs” value in assay [3] (Table 56, after 20-22 days, 1.1 gai/ha alone) worked out at 89%.

The values are drawn from US8871681B2, “Herbicidal compositions comprising 4-amino-3-chloro-5-fluoro-6-(4-chloro-2-fluoro-3-methoxyphenyl) pyridine-2-carboxylic acid or a derivative thereof and certain sulfonylureas” (Dow AgroSciences LLC, priority 2012, dated 2014).
